US10750743B2, “Pyridazinone herbicides” (E.I. DU PONT DE NEMOURS AND COMPANY, priority 2015, dated 2020)

Tests used:
Assay type in all cases: in vivo
[1] = system: barnyardgrass (Echinochloa crus-galli); assay: Test A preemergence, directed soil spray, visual injury rating; conditions: 0 is no effect, 100 is complete control
Description: (§1) Seeds of plant species selected from barnyardgrass (Echinochloa crus-galli), kochia (Kochia scoparia), ragweed (common ragweed, Ambrosia elatior), ryegrass, It. (Italian ryegrass, Lolium multiflorum), foxtail, giant (giant foxtail, Setaria faberii), and pigweed (Amaranthus retroflexus), were planted into a blend of loam soil and sand and treated preemergence with a directed soil spray using test chemicals formulated in a non-phytotoxic solvent mixture which included a surfactant.
(§2) At the same time, plants selected from these weed species and also wheat (Triticum aestivum), corn (Zea mays), blackgrass (Alopecurus myosuroides), and galium (catchweed bedstraw, Galium aparine), were planted in pots containing the same blend of loam soil and sand and treated with postemergence applications of test chemicals formulated in the same manner Plants ranged in height from 2 to 10 cm and were in the one- to two-leaf stage for the postemergence treatment. Treated plants and untreated controls were maintained in a greenhouse for approximately 10 d, after which time all treated plants were compared to untreated controls and visually evaluated for injury. Plant response ratings, summarized in Table A, are based on a 0 to 100 scale where 0 is no effect and 100 is complete control. A dash (-) response means no test result.

[2] = system: foxtail, giant (giant foxtail, Setaria faberii); assay: as above; conditions: 0 is no effect, 100 is complete control
Description: as §1, §2

kochia (Kochia scoparia) [3] = assay: as above; conditions: 0 is no effect, 100 is complete control
Description: as §1, §2

[4] = system: pigweed (Amaranthus retroflexus); assay: as above; conditions: 0 is no effect, 100 is complete control
Description: as §1, §2

[5] = system: ragweed (common ragweed, Ambrosia elatior); assay: as above; conditions: 0 is no effect, 100 is complete control
Description: as §1, §2

[6] = system: ryegrass, It. (Italian ryegrass, Lolium multiflorum); assay: as above; conditions: 0 is no effect, 100 is complete control
Description: as §1, §2

[7] = system: barnyardgrass (Echinochloa crus-galli); assay: Test B flooded paddy test, visual rating; conditions: Flood, 250 g ai/ha, applied to paddy water, rated after 13 to 15 d
Protocol: (§3) Plant species in the flooded paddy test selected from rice (Oryza sativa), sedge, umbrella (small-flower umbrella sedge, Cyperus difformis), ducksalad (Heteranthera limosa), and barnyardgrass (Echinochloa crus-galli) were grown to the 2-leaf stage for testing. At time of treatment, test pots were flooded to 3 cm above the soil surface, treated by application of test compounds directly to the paddy water, and then maintained at that water depth for the duration of the test. Treated plants and controls were maintained in a greenhouse for 13 to 15 d, after which time all species were compared to controls and visually evaluated. Plant response ratings, summarized in Table B, are based on a scale of 0 to 100 where 0 is no effect and 100 is complete control. A dash (-) response means no test result.

[8] = system: ducksalad (Heteranthera limosa); assay: Test B flooded paddy test, visual rating; conditions: Flood, 250 g ai/ha, applied to paddy water, rated after 13 to 15 d
Protocol: as §3

rice (Oryza sativa) = assay: Test B flooded paddy test, visual rating; conditions: Flood, 250 g ai/ha, applied to paddy water, rated after 13 to 15 d
Protocol: as §3

[9] = system: sedge, umbrella (small-flower umbrella sedge, Cyperus difformis); assay: Test B flooded paddy test, visual rating; conditions: Flood, 250 g ai/ha, applied to paddy water, rated after 13 to 15 d
Protocol: as §3

[10] = system: barnyardgrass (Echinochloa crus-galli); assay: Test A postemergence application, visual injury rating; conditions: 0 to 100 scale, 0 no effect, 100 complete control
Description: as §1, §2

[11] = system: blackgrass (Alopecurus myosuroides); assay: as above; conditions: 0 to 100 scale, 0 no effect, 100 complete control
Description: as §1, §2

corn (Zea mays) = assay: as above; conditions: for Corn plant response rating: 0 to 100 scale, 0 no effect, 100 complete control
Description: as §1, §2

[12] = system: foxtail, giant (giant foxtail, Setaria faberii); assay: as above; conditions: for Foxtail, Giant plant response rating: 0 to 100 scale, 0 no effect, 100 complete control
Description: as §1, §2

[13] = system: galium (catchweed bedstraw, Galium aparine); assay: as above; conditions: for Galium plant response rating: 0 to 100 scale, 0 no effect, 100 complete control
Description: as §1, §2

kochia (Kochia scoparia) [14] = assay: as above; conditions: 0 to 100 scale, 0 no effect, 100 complete control
Description: as §1, §2

[15] = system: pigweed (Amaranthus retroflexus); assay: as above; conditions: for Pigweed plant response rating: 0 to 100 scale, 0 no effect, 100 complete control
Description: as §1, §2

[16] = system: ragweed (common ragweed, Ambrosia elatior); assay: as above; conditions: for Ragweed plant response rating: 0 to 100 scale, 0 no effect, 100 complete control
Description: as §1, §2

[17] = system: ryegrass, It. (Italian ryegrass, Lolium multiflorum); assay: as above; conditions: for Ryegrass, It. plant response rating: 0 to 100 scale, 0 no effect, 100 complete control
Description: as §1, §2

[18] = system: wheat (Triticum aestivum); assay: as above; conditions: for Wheat plant response rating: 0 to 100 scale, 0 no effect, 100 complete control
Description: as §1, §2

[19] = 31 g ai/ha, 0 is no effect, 100 is complete control

SMILES	Plant response rating (0 to 100 scale), Barnyardgrass ([1]; 125 g ai/ha)	Plant response rating (0 to 100 scale), Barnyardgrass ([1]; 500 g ai/ha)	Plant response rating (0 to 100 scale), Foxtail, Giant ([2]; 125 g ai/ha)	Plant response rating (0 to 100 scale), Kochia (kochia (Kochia scoparia) [3]; 125 g ai/ha)	Plant response rating (0 to 100 scale), Pigweed ([4]; 125 g ai/ha)	Plant response rating (0 to 100 scale), Ragweed ([5]; 125 g ai/ha)	Plant response rating (0 to 100 scale), Ryegrass, It. ([6]; 125 g ai/ha)	Barnyardgrass plant response rating (0 to 100 scale, 0 is no effect, 100 is complete control) [7]	Ducksalad plant response rating (0 to 100 scale, 0 is no effect, 100 is complete control) [8]	Rice plant response rating (0 to 100 scale, 0 is no effect, 100 is complete control) (rice (Oryza sativa))	Sedge, Umbrella plant response rating (0 to 100 scale, 0 is no effect, 100 is complete control) [9]	Barnyardgrass plant response rating ([10]; 125 g ai/ha)	Blackgrass plant response rating ([11]; 125 g ai/ha)	Corn plant response rating (corn (Zea mays); 125 g ai/ha)	Foxtail, Giant plant response rating ([12]; 125 g ai/ha)	Galium plant response rating ([13]; 125 g ai/ha)	Pigweed plant response rating ([15]; 125 g ai/ha)	Ragweed plant response rating ([16]; 125 g ai/ha)	Ryegrass, It. plant response rating ([17]; 125 g ai/ha)	Wheat plant response rating ([18]; 125 g ai/ha)	further results
Cc1nn(C)c(=O)c(-c2cccc3scnc23)c1O [Compound 1]	0	20	0	0	0	0	0	0	0	0	0	0	0	0	0	0	0	0	0	0	Plant response rating (0 to 100 scale), Foxtail, Giant ([2]; 500 g ai/ha): 20; Plant response rating (0 to 100 scale), Kochia (kochia (Kochia scoparia) [3]; 500 g ai/ha): 0; Plant response rating (0 to 100 scale), Pigweed ([4]; 500 g ai/ha): 0; Plant response rating (0 to 100 scale), Ragweed ([5]; 500 g ai/ha): 20; Plant response rating (0 to 100 scale), Ryegrass, It. ([6]; 500 g ai/ha): 70; Barnyardgrass plant response rating ([10]; 500 g ai/ha): 0; Blackgrass plant response rating ([11]; 500 g ai/ha): 10; Corn plant response rating (corn (Zea mays); 500 g ai/ha): 0; Foxtail, Giant plant response rating ([12]; 500 g ai/ha): 0; Galium plant response rating ([13]; 500 g ai/ha): 30; Kochia plant response rating (kochia (Kochia scoparia) [14]; 125 g ai/ha): 0; Kochia plant response rating (kochia (Kochia scoparia) [14]; 500 g ai/ha): 0; Pigweed plant response rating ([15]; 500 g ai/ha): 10; Ragweed plant response rating ([16]; 500 g ai/ha): 10; Ryegrass, It. plant response rating ([17]; 500 g ai/ha): 40; Wheat plant response rating ([18]; 500 g ai/ha): 0
Cc1ccc2ccoc2c1-c1c(O)c(C)nn(C)c1=O [Compound 7]	10	90	20	30	100	40	100	0	0	0	0	30	80	0	80	100	90	90	100	20	Plant response rating (0 to 100 scale), Foxtail, Giant ([2]; 500 g ai/ha): 90; Plant response rating (0 to 100 scale), Kochia (kochia (Kochia scoparia) [3]; 500 g ai/ha): 90; Plant response rating (0 to 100 scale), Pigweed ([4]; 500 g ai/ha): 100; Plant response rating (0 to 100 scale), Ragweed ([5]; 500 g ai/ha): 90; Plant response rating (0 to 100 scale), Ryegrass, It. ([6]; 500 g ai/ha): 100; Barnyardgrass plant response rating ([10]; 500 g ai/ha): 80; Blackgrass plant response rating ([11]; 500 g ai/ha): 90; Corn plant response rating (corn (Zea mays); 500 g ai/ha): 60; Foxtail, Giant plant response rating ([12]; 500 g ai/ha): 90; Galium plant response rating ([13]; 500 g ai/ha): 100; Kochia plant response rating (kochia (Kochia scoparia) [14]; 125 g ai/ha): 100; Kochia plant response rating (kochia (Kochia scoparia) [14]; 500 g ai/ha): 100; Pigweed plant response rating ([15]; 500 g ai/ha): 90; Ragweed plant response rating ([16]; 500 g ai/ha): 90; Ryegrass, It. plant response rating ([17]; 500 g ai/ha): 100; Wheat plant response rating ([18]; 500 g ai/ha): 70
CC(=O)Oc1c(C)nn(C)c(=O)c1-c1cncc2ccccc12 [Compound 8]	0	0	0	0	20	0	0	0	0	0	0	0	0	0	0	10	70	0	0	0	Plant response rating (0 to 100 scale), Foxtail, Giant ([2]; 500 g ai/ha): 20; Plant response rating (0 to 100 scale), Kochia (kochia (Kochia scoparia) [3]; 500 g ai/ha): 0; Plant response rating (0 to 100 scale), Pigweed ([4]; 500 g ai/ha): 70; Plant response rating (0 to 100 scale), Ragweed ([5]; 500 g ai/ha): 0; Plant response rating (0 to 100 scale), Ryegrass, It. ([6]; 500 g ai/ha): 30; Barnyardgrass plant response rating ([10]; 500 g ai/ha): 20; Blackgrass plant response rating ([11]; 500 g ai/ha): 0; Corn plant response rating (corn (Zea mays); 500 g ai/ha): 0; Foxtail, Giant plant response rating ([12]; 500 g ai/ha): 20; Galium plant response rating ([13]; 500 g ai/ha): 80; Kochia plant response rating (kochia (Kochia scoparia) [14]; 125 g ai/ha): 30; Kochia plant response rating (kochia (Kochia scoparia) [14]; 500 g ai/ha): 80; Pigweed plant response rating ([15]; 500 g ai/ha): 80; Ragweed plant response rating ([16]; 500 g ai/ha): 0; Ryegrass, It. plant response rating ([17]; 500 g ai/ha): 30; Wheat plant response rating ([18]; 500 g ai/ha): 0
CC(=O)Oc1c(Cl)nn(C)c(=O)c1-c1cccc2cccnc12 [Compound 71]	20		10	30	60	10	80	0	0	0	0	40	70	0	30	80	50	70	90	30	Plant response rating (0 to 100 scale), Barnyardgrass ([1]; 31 g ai/ha): 0; Plant response rating (0 to 100 scale), Foxtail, Giant ([2]; 31 g ai/ha): 0; Plant response rating (0 to 100 scale), Kochia (kochia (Kochia scoparia) [3]; 31 g ai/ha): 0; Plant response rating (0 to 100 scale), Pigweed ([4]; 31 g ai/ha): 0; Plant response rating (0 to 100 scale), Ragweed ([5]; 31 g ai/ha): 0; Plant response rating (0 to 100 scale), Ryegrass, It. ([6]; 31 g ai/ha): 20; Barnyardgrass plant response rating ([10]; 31 g ai/ha): 10; Blackgrass plant response rating ([11]; 31 g ai/ha): 10; Plant response rating (0 to 100 scale), Corn (corn (Zea mays); [19]): 0; Plant response rating (0 to 100 scale), Foxtail, Giant [12, 19]: 10; Plant response rating (0 to 100 scale), Galium [13, 19]: 60; Plant response rating (0 to 100 scale), Pigweed [15, 19]: 20; Plant response rating (0 to 100 scale), Ragweed [16, 19]: 30; Plant response rating (0 to 100 scale), Ryegrass, It. [17, 19]: 50; Plant response rating (0 to 100 scale), Wheat [18, 19]: 0
